Consider three molecules from US20140023647A1, “METHOD FOR TREATING SOLID TUMORS” (BELLICUM PHARMACEUTICALS, INC., priority 2010, published 2014).

The subject of data set [1] is NFkappaB. The data set is described as follows: NFkappaB reporter assay, iCD40 constructs in Jurkat T cells with titrated AP20187. It is filed as cell-based, human. How it is done: Reporters assays were conducted in human Jurkat-TAg (T cells) or 293 (kidney embryonic epithelial) cells or murine RAW264.7 (macrophage) cells. Jurkat-TAg cells (107) in log-phase growth were electroporated ([…], 250 V) with […] expression plasmid and […] of reporter plasmid NF-kB-SEAP or IFNb-TA-SEAP (see above). 293 or RAW264.7 cells (˜2×10^5 cells per 35-mm dish) in log phase were transfected with […] of FuGENE-6 in growth media. After 24 hr, transformed cells were stimulated with CID. After an additional 20 h, supernatants were assayed for SEAP activity as discussed previously (Spencer, D. M., et al., Science 262, 1019-1024 (1993)).
An inducible CD40 receptor based on chemical-induced dimerization (CID) and patterned after endogenous CD40 activation was produced to specifically target DCs (FIG. 1A). The recombinant CD40 receptor, termed iCD40, was engineered by rt-PCR amplifying the 228 bp CD40 cytoplasmic signaling domain from purified murine bone marrow-derived DCs (>95% CD11c+) and sub-cloning the resulting DNA fragment either downstream (i.e., M-FvFvlsCD40-E) or upstream (M-CD40-FvFvls-E) of tandem copies of the dimerizing drug binding domain, FKBP12(V36) (FIG. 1B). […]

In data set [2] the target is T1, FKBP12(V36) (Homo sapiens, UniProt P62942, F37V).
T1 construct: expressed in transfected cells; host or cells: cells transduced with Ad5f35-ihCD40 (human monocyte-derived dendritic cells); inferred, the sentence names no cells
Put plainly: AP1903 needed in vitro for effective signaling of cells. It is filed as cell-based. How it is done:
The fixed dose of AP1903 for Injection used in this study is 0.4 mg/kg intravenously infused over 2 hours. The amount of AP1903 needed in vitro for effective signaling of cells is 10-100 nM (1600 Da MW). This equates to 16-160 μg/L or ˜0.016-1.6 mg/kg (1.6-160 μg/kg). Doses up to 1 mg/kg were well-tolerated in the Phase I study of AP1903 described above. Therefore, 0.4 mg/kg may be a safe and effective dose of AP1903 for this Phase I study in combination with BPX-101.

For data set [3] the following is noted: cited from earlier work.
Data set [4] deals with T2, IL-6 (Homo sapiens, UniProt P05231).
T2 construct: host or cells: patients' endogenous IL-6
The following applies: cited from earlier work.

The mark [5] stands for this setting: patients with advanced cancer, Clarke et al.

Like-named read-outs stand apart in the source and are kept apart here.

T2 sequence (P05231 30-212): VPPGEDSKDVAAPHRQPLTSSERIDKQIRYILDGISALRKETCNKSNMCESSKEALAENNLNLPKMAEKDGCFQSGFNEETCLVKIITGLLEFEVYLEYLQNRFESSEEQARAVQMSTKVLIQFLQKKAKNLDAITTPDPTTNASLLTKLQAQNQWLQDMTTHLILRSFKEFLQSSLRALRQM
T1 sequence (P62942 2-108 F37V): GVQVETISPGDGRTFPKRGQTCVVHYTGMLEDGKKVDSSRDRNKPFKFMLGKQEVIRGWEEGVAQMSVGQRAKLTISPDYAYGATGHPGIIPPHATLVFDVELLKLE

Take `CC[C@H](C(=O)N1CCCC[C@H]1C(=O)O[C@H](CCc1ccc(OC)c(OC)c1)c1cccc(OCC(=O)NCC(CNC(=O)COc2cccc([C@@H](CCc3ccc(OC)c(OC)c3)OC(=O)[C@@H]3CCCCN3C(=O)[C@@H](CC)c3cc(OC)c(OC)c(OC)c3)c2)CN(C)C)c1)c1cc(OC)c(OC)c(OC)c1` [AP20187]: the “high drug dose suppression” value in data set [1] (iCD40-transfected Jurkat T cells) is reported as “over 100 nM”. For the same molecule, in data set [1] (increasing AP20187, iCD40 constructs vs control vector M-FvFvls-E), the “NF B transcriptional activity” value was “significant upregulation”.
In the case of `CC[C@H](C(=O)N1CCCC[C@H]1C(=O)O[C@H](CCc1ccc(OC)c(OC)c1)c1cccc(OCC(=O)NCCNC(=O)COc2cccc([C@@H](CCc3ccc(OC)c(OC)c3)OC(=O)[C@@H]3CCCCN3C(=O)[C@@H](CC)c3cc(OC)c(OC)c(OC)c3)c2)c1)c1cc(OC)c(OC)c(OC)c1` (relative stereo) [AP1903, 2-Piperidinecarboxylic acid, 1-[(2S)-1-oxo-2-(3,4,5-trimethoxyphenyl)butyl]-, 1,2-ethanediylbis[imino(2-oxo-2,1-ethanediyl)oxy-3,1-phenylene[(1R)-3-(3,4-dimethoxyphenyl)propylidene]]ester, [2S-[1(R*),2R*[S*[S*[1(R*),2R*]]]]]-(9Cl)], the “amount needed for effective signaling, converted to dose” value in data set [2] lay within 0.016 to 1.6 mg/kg. The “amount needed in vitro for effective signaling of cells” value in data set [2] was 10 to 100 nM. Moreover, the “amount needed for effective signaling, converted” value in data set [2] (1600 Da MW) was in the range of 16 to 160 µg/L. Further, in data set [3] (0.01-1.0 mg/kg dose range, IV over 2 hours, plasma), the “mean Cmax” value was 10 to 1275 ng/mL. In data set [3] (0.01-1.0 mg/kg), the “AP1903 plasma levels versus dose” value is on record as “directly proportional to dose”. Besides, the results for the “plasma level as % of maximal concentration” value in data set [3] (0.5 hours post-dose), in data set [3] (2 hours post-dose) and in data set [3] (10 hours post-dose) were “approximately 18%”, around 7% and around 1%, respectively. Besides, the well-tolerated doses result in data set [3] (Phase I study of AP1903) was “up to 1 mg/kg”.

B1: ALD-518: humanized anti-IL-6 monoclonal antibody (antibody, chains of the INN, looked up, V domains shown)
VH: EVQLVESGGGLVQPGGSLRLSCAASGFSLSNYYVTWVRQAPGKGLEWVGIIYGSDETAYATSAIGRFTISRDNSKNTLYLQMNSLRAEDTAVYYCARDDSSDWDAKFNLWGQGTLVTVSS
VL: AIQMTQSPSSLSASVGDRVTITCQASQSINNELSWYQQKPGKAPKLLIYRASTLASGVPSRFSGSGSGTDFTLTISSLQPDDFATYYCQQGYSLRNIDNAFGGGTKVEIK
In the case of B1, the “hematologic parameters and albumin” value in data set [4] (larger study, cancer-related anemia, cachexia and fatigue, Schuster et al.) was “increase hemoglobin, hematocrit, mean corpuscular hemoglobin, and albumin”. For the same molecule, in data set [4] (setting [5]), the C-reactive protein levels entry is reported as “decrease in C-reactive protein levels”; the “fatigue, hemoglobin and albumin” value was “reverse fatigue, increase hemoglobin and increase albumin”; the hand grip strength result is given as “trend to increased hand grip strength”.
